Values after ≈ are worked out from the molar mass of the structure shown.
Assays:
[1] = system: L. donovani intracellular amastigotes infecting THP-1 cells; assay: Intracellular amastigote assay; format: cell-based, Leishmania donovani; details: for inhibition of parasite growth (primary screen): single point 10 μM, L. donovani amastigotes in THP-1; for EC50: read-out: Intracellular Amastigote EC50, Leishmania donovani, THP-1 host, 72 h
[2] = system: L. donovani promastigotes; assay: Promastigote assay; format: cell-based; details: read-out: Extracellular promastigote EC50; Leishmania donovani, 72 h
[3] = system: L. major intracellular amastigotes; assay: Intracellular amastigote assay; format: cell-based; details: read-out: Intracellular Amastigote EC50; Leishmania major, THP-1 host, 72 h
[4] = system: L. major promastigotes; assay: Promastigote assay; format: cell-based; details: read-out: Extracellular promastigote EC50; Leishmania major, 72 h
[5] = system: THP-1 cells; assay: Host THP-1 cell cytotoxicity; format: cell-based, human; details: for cytotoxicity to the host THP-1 cells (GI): primary screen, single point 10 μM; for CC50: read-out: Host (THP-1) cell CC50, UCSF assay
[6] = system: L. donovani intracellular amastigotes infecting THP-1 macrophages; assay: GSK intramacrophage L. donovani assay; format: cell-based, Leishmania donovani; details: read-out: LD AMMAC EC50; growth inhibition of L. donovani intracellular amastigotes infecting THP-1 macrophages (GSK)
[7] = system: host THP-1 macrophages; assay: GSK LD MAC host cell toxicity readout of inMac assay; format: cell-based; details: read-out: LD MAC EC50; cytotoxicity against host THP-1 macrophages (GSK)
[8] = system: HepG2 cells; assay: HepG2 cytotoxicity; format: cell-based
[9] = Kinetic aqueous solubility by CLND; format: physicochemical; details: high-throughput CLND
[10] = Artificial membrane permeability; format: in vitro ADME; details: pH 7.4
[11] = target: human serum albumin (Homo sapiens, UniProt P02768); assay: Human serum albumin; format: in vitro ADME; details: immobilized HSA column
[12] = Property forecast index; format: physicochemical; details: ChromLogD7.4 + Aromatic rings
[13] = system: L. donovani intracellular amastigotes infecting B10R cells; assay: Intracellular amastigote assay; format: cell-based; details: read-out: L. donovani EC50; intracellular amastigotes infecting B10R cells (UCSD assay), average of two biological replicates
[14] = system: host B10R cells; format: cell-based
[15] = FaSSIF solubility; format: physicochemical; details: racemate
[16] = format: in vitro ADME; details: microsomes
[17] = Whole blood stability; format: in vitro ADME; details: criterion: no % reduction over 120 min; racemate
[18] = Plasma protein binding; format: in vitro ADME; details: racemate, rapid equilibrium dialysis
[19] = system: intramacrophage Leishmania; details: read-out: intramacrophage EC50; cited from earlier work
[20] = system: intracellular parasites of Leishmania donovani; assay: Antileishmanial potency against visceral leishmaniasis; format: cell-based; details: read-out: EC50 (visceral leishmaniasis)
[21] = system: host macrophage; assay: Host cell cytotoxicity in the same assay; format: cell-based; details: abstract

Chain of human serum albumin (P02768 25-609): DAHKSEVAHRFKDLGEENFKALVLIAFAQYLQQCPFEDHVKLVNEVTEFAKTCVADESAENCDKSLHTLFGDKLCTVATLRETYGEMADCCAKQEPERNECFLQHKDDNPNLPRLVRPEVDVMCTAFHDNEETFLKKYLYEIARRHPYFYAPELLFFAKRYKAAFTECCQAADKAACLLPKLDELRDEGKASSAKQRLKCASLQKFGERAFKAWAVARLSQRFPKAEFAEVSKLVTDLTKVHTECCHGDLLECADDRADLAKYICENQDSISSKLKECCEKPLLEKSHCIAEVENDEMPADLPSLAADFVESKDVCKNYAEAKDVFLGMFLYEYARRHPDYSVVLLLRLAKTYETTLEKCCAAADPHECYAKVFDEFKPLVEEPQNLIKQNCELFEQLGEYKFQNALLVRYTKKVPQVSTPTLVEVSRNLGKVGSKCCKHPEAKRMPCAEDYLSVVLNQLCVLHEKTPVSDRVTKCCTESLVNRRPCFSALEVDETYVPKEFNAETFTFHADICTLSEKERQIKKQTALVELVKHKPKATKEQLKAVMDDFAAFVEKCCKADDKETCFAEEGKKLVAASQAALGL

SMILES | inhibition of parasite growth (primary screen) [1] [%] | EC50 [1] [nM] | EC50 [2] [nM] | EC50 [3] [nM] | EC50 [4] [nM] | cytotoxicity to the host THP-1 cells (GI) [5] [% GI] | CC50 [5] [nM] | EC50 [6] [nM] | EC50 [7] [nM] | EC50 [8] [nM] | Solubility (CLND) [9] [µM] | AMP [10] [nm/s] | HSA Binding [11] [%] | PFI [12] | EC50 [19] [nM] | also measured
COc1ccc(N2C(=O)c3[nH]nc(CC(C)C)c3C2c2ccc(C)cc2)cc1 (stereo not shown) [CMLD007430] | 0 | – | – | – | – | – | – | – | – | – | – | – | – | – | – | –
COc1ccc(N2C(=O)c3[nH]nc(CC(C)C)c3C2c2ccc(F)cc2)cc1 (stereo not shown) [Compound 1] | > 99 | 2500 | 2000 | 1300 | 4400 | < 13 | > 20000 | 2500 | 15800 | 63100 | 107 (≈ 40.6 µg/mL) | 345 | 96.4 | 8.4 | – | EC50 [13]: 820 nM; CC50 [14]: > 20000 nM; FaSSIF solubility [15]: 130 µg/mL; Microsomal stability (mouse) Clint [16]: < 3.4 mL/min/g; Microsomal stability (mouse) t1/2 [16]: > 20 min; Whole blood stability [17]: Pass; Plasma protein binding [18]: 97.5%
COc1ccc(N2C(=O)c3[nH]nc(CC(C)C)c3C2c2ccccc2)cc1 (stereo not shown) [Compound 2] | > 99 | 3700 | 2400 | 1700 | 4200 | < 13 | > 20000 | 3200 | 31600 | 79400 | 90 (≈ 32.5 µg/mL) | 370 | 95.8 | 8.4 | – | –
C[C@H]1CN(c2n[nH]c3nc(N[C@H]4CC[C@H](NS(=O)(=O)CCC(F)(F)F)CC4)ncc23)CCO1 [GSK3186899] | – | – | – | – | – | – | – | – | – | – | – | – | – | – | 1400 | –
O=C(Nc1ccc(F)c(-c2ccn3c(N4CCOCC4)cnc3n2)c1)N1CCCC1 [GSK3494245] | – | – | – | – | – | – | – | – | – | – | – | – | – | – | 1600 | –
C[C@@H]1[C@H](O)[C@@H](C)/C=C/C=C/C=C/C=C/C=C/C=C/C=C/[C@H](O[C@@H]2O[C@H](C)[C@@H](O)[C@H](N)[C@@H]2O)C[C@@H]2O[C@](O)(C[C@@H](O)C[C@@H](O)[C@H](O)CC[C@@H](O)C[C@@H](O)CC(=O)O[C@H]1C)C[C@H](O)[C@H]2C(=O)O [amphotericin B] | – | – | – | – | – | – | – | – | – | – | – | – | – | – | – | EC50 [20]: 200 nM; concentration cytotoxic to the host cell [21]: 5.0 µM
